# Experimental data taken from patent publication US20250101052A1, “COMPOUND FOR EGFR KINASE INHIBITOR, COMPOSITION, AND USE THEREOF” (INNOVATION INSTITUTE FOR ARTIFICIAL INTELLIGENCE IN …, priority 2021, published 2025).
# Like-named read-outs stand apart in the source and are kept apart here.
# How the values were obtained:
# [1] = system: BaF3-EGFR^L858R/C797S cells; assay: BaF3 cell proliferation inhibition experiment (CCK-8); assay type: cell-based; settings: Ba/F3 EGFR-L858R, read-out: BaF3-EGFR^L858R/C797S (IC50 nM)
# Protocol: (§1) A. Cell line: BaF3 cells with stable overexpression of wild-type genes are named BaF3-EGFR^WT, and BaF3 cells with stable overexpression of EGFR^L858R/T790M/C797S EGFR^del19/T790M/C797S EGFR^L858R/C797S and EGFR^del19/C797S mutant genes are named BaF3-EGFR^L858R/T790M/C797S BaF3-EGFR^del19/T790M/C797S BaF3-EGFR^L858R/C797S and BaF3-EGFR^del19/C797S cells, respectively. Mediums:
# (§2) a) The medium was preheated in a 37° C. water bath.
# (§3) b) The cryopreservation tube was taken from the liquid nitrogen tank, quickly placed in a 37° C. water bath, and melted completely within 1 minute.
# (§4) c) The cell suspension was transferred to a 15 mL centrifuge tube containing a 10 mL medium and centrifuged at 1000 rpm for 4 minutes.
# (§5) d) The supernatant was discarded, the cells were resuspended in a 1 mL medium and transferred to a […] culture dish containing a 10 mL medium, 20% serum and 50 ng/mL EGF were administered to the first-generation medium, and culture was conducted in a 37° C. and 5% CO2 incubator.
# (§6) b) The cells in the culture dish were blown evenly with a 5 mL pipette, and 500 μL of the cells were pipetted out to be inoculated into a new […] culture dish and cultured in a 37° C. and 5% CO2 incubator.
# (§7) a) The compound to be tested (10 mM stock solution) was diluted with 100% DMSO to 1 mM, and diluted with a culture solution in a 24-well plate to prepare of a working solution of 2 μM concentration.
# (§8) b) The 2 μM working solution was diluted with a triple dilution method to obtain working solutions with approximate concentrations of 2 μM, 600 nM, 200 nM, 60 nM, and 20 nM.
# (§9) a) The cells at the logarithmic growth phase were centrifuged at 1000 rpm for 4 minutes, resuspended with a medium (containing 10% serum and 50 ng/mL EGF), and counted.
# (§10) b) The cells were inoculated into a 96-well plate with a cell density of 4000 cells/well, and placed in a 37° C. and 5% CO2 incubator for culture for 12 hours.
# (§11) a) The prepared compound was added to a 96-well plate, with 100 μL per well. The final concentrations were 1 μM, 300 nM, 100 nM, 30 nM, 10 nM, and 0 nM, and the final concentration of DMSO was 0.2%. A medium served as a blank control.
# (§12) b) The cells were placed in 37° C. and 5% CO2 incubator for culture for 72 hours.
# (§13) (5) Cell Viability Testing
# (§14) a) The 96-well cell culture plate was taken out, and 20 μL of a CCK-8 reagent (Cell Counting Kit-8, Topscience, Catalog No. C0005) was added in the dark.
# (§15) b) Mixing well was conducted on a horizontal shaking table at a room temperature at 100 rpm for 5 minutes.
# (§16) c) The culture plate was placed in a 37° C. constant-temperature incubator for incubation.
# (§17) The data was analyzed using GraphPad Prism 8.0 software to obtain a fitted curve of activity of the compounds. The IC50 of the compounds was fitted from nonlinear regression equation.
# BaF3-EGFR^WT cells = assay: as above; assay type: cell-based; settings: Mus musculus, read-out: BaF3-EGFR^WT (IC50 nM)
# Protocol: as §1, §2, §3, §4, §5, §6, §7, §8, §9, §10, §11, §12, §13, §14, §15, §16, §17
# [2] = system: BaF3-EGFR^del19/C797S cells; assay: as above; assay type: cell-based; settings: Mus musculus, read-out: BaF3-EGFR^del19 /C797S (IC50 nM)
# Protocol: as §1, §2, §3, §4, §5, §6, §7, §8, §9, §10, §11, §12, §13, §14, §15, §16, §17
# [3] = system: BaF3-EGFR^del19/T790M/C797S cells; assay: as above; assay type: cell-based; settings: Ba/F3 EGFR-Del19/T790M/C797S, read-out: BaF3-EGFR^del19 /T790M/C797S (IC50 nM)
# Protocol: as §1, §2, §3, §4, §5, §6, §7, §8, §9, §10, §11, §12, §13, §14, §15, §16, §17
# [4] = target: EGFR^L858R/T790M/C797S kinase (Homo sapiens (Human), UniProt P00533, C797S/L858R/T790M); assay: EGFR^L858R/T790M/C797S kinase inhibitory activity experiment; assay type: biochemical; settings: in vitro
# Summary of the method: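 Human EGFR L858R/T790M/C797S mutant preincubated 10 min with compound (10-point dilution from 1 μM), then reacted 60 min at room temperature with ATP and kinase substrate 22. Substrate conversion read by Caliper mobility shift. % inhibition normalized to no-enzyme and no-compound wells, with IC50 from variable-slope log(inhibitor) fit.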
# [5] = system: BaF3-EGFR^L858R/T790M/C797S cells; assay: BaF3 cell proliferation inhibition experiment (CCK-8); assay type: cell-based; settings: Ba/F3 EGFR-L858R, 72 hours
# From the text: BaF3 cell proliferation inhibition experiment: The compounds of the present invention have excellent inhibitory activity against the proliferation of BaF3-EGFR^L858R/T790M/C797S cells
# as §1, §2, §3, §4, §5, §6, §7, §8, §9, §10, §11, §12, §13, §14, §15, §16
# d) Starting from the addition of the CCK-8, the absorbance at 450 nm was read using the TECAN microplate reader at 1 hour, 2 hours, and 3 hours, respectively.
# as §17
# A431 cells = assay: A431 cell proliferation inhibition (SRB); assay type: cell-based; settings: Homo sapiens, A-431, wild-type EGFR, 72 hours
# Protocol: A431 cell proliferation inhibition: The compounds of the present invention have good selectivity to wild-type EGFR
# as §2, §3, §4, §5, §6, §7, §8, §9, §10, §11, §12, §13
# a) The cell supernatant was discarded, rinsed once with 1×PBS, and fixed with 10% trichloroacetic acid for 1 hour. The trichloroacetic acid was discarded, excess trichloroacetic acid was washed off with tap water, and the 96-well plate was dried in a 60° C. oven.
# b) 70 μL of an SRB stain was added to each well of the dry 96-well plate for staining at a room temperature for 30 minutes. Excess SRB stain was washed off with 1% glacial acetic acid, and the 96-well plate was dried in a 60° C. oven.
# c) SRB was dissolved with 100 μL of 10 mM Tris-base solution. The absorbance was detected at 540 nm ultraviolet absorption using the microplate reader. The data was analyzed.
# as §17
# [6] = BaF3, cell proliferation, 72 hours
# EGFR^L858R/T790M/C797S kinase, sequence (P00533 25-1210 T790M/C797S/L858R): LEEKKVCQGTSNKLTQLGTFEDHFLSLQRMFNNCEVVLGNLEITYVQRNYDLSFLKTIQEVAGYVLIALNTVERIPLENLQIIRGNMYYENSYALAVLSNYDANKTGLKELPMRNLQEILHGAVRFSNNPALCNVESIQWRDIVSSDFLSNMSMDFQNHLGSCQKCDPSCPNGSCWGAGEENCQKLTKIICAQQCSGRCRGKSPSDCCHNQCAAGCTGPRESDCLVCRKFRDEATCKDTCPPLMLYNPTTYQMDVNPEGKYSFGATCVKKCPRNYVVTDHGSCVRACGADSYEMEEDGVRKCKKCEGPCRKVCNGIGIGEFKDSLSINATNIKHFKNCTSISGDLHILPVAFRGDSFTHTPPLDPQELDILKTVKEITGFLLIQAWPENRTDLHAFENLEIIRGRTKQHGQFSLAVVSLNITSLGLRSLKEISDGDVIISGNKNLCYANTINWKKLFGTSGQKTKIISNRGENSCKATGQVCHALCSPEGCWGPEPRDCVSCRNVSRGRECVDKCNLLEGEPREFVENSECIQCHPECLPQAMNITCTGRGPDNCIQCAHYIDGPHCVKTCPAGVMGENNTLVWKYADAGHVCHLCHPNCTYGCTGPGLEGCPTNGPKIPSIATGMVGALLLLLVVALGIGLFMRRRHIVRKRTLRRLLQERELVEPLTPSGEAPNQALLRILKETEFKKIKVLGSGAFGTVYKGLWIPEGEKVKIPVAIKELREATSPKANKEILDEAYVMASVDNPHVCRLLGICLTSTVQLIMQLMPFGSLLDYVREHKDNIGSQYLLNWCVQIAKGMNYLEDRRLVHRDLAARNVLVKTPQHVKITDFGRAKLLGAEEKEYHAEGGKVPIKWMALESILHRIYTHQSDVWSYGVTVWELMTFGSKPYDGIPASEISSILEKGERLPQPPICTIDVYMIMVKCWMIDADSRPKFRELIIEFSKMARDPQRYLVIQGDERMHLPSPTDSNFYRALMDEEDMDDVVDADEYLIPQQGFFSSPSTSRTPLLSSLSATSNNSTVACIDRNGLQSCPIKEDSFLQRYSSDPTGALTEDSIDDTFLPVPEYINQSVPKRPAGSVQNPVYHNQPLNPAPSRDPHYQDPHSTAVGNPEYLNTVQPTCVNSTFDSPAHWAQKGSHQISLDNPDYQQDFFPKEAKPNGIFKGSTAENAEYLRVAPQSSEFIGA
smiles,measurement,setting,value
"C=CC(=O)Nc1cc(Nc2nccc(-c3cn(C)c4ccccc34)n2)c(OC)cc1N(C)CCN(C)C [AZD9291, reference compound]",IC50,[1]; 72 h,> 1000 nM
same,IC50,"BaF3-EGFR^WT cells; BaF3, 72 h",76.1 nM
same,IC50,"[2]; BaF3, 72 h",> 1000 nM
same,IC50,[3]; 72 h,614 nM
"CCc1cc(Nc2ncc(Cl)c(Nc3ccc(C)c(C)c3P(C)(C)=O)n2)c(OC)cc1N1CCC(N2C[C@H]3CN(C)C[C@H]3C2)CC1 [Compound 52, (6-((5-Chloro-2-((5-ethyl-2-methoxy-4-(4-((3aR,6aS)-5-methyloctahydropyrrol[3,4-C]pyrrol-2(1H)-yl)piperidin-1-yl)phenyl)amino)pyrimidin-4-yl)amino)-2,3-dimethylphenyl)dimethylphosphine oxide]",IC50,[4],0.0369 nM
same,IC50,[5],236 nM
same,IC50,A431 cells,606 nM
same,IC50,BaF3-EGFR^WT cells; [6],353 nM
same,IC50,"[3]; cell proliferation, 72 hours",92.8 nM
"CCc1cc(Nc2ncc(Cl)c(Nc3ccc(C)c(C)c3P(C)(C)=O)n2)c(OC)cc1N1CCC2(CC1)CC(N1CCCC1)C2 [Compound 48, (6-((5-chloro-2-((5-ethyl-2-methoxy-4-(2-(pyrrolidin-1-yl)-7-azaspiro[3.5]nonan-7-yl)phenyl)amino)pyrimidin-4-yl)amino)-2,3-dimethylphenyl)dimethylphosphine oxide]",IC50,[4],0.0629 nM
same,IC50,BaF3-EGFR^WT cells; [6],634 nM
same,IC50,"[3]; cell proliferation, 72 hours",176 nM
"CCc1cc(Nc2ncc(Cl)c(Nc3ccc(C)c(C)c3P(C)(C)=O)n2)c(OC)cc1N1CCC(N2CC3CC2CN3C)CC1 (stereo not drawn) [Compound 54, (6-((5-Chloro-2-((5-ethyl-2-methoxy-4-(4-(5-methyl-2,5-diazadicyclo[2.2.1]heptane-2-yl)piperidin-1-yl)phenyl)amino)pyrimidin-4-yl)amino)-2,3-dimethylphenyl)dimethylphosphine oxide]",IC50,[4],0.201 nM
same,IC50,"[1]; cell proliferation, 72 hours",166 nM
same,IC50,[2]; [6],193 nM
